What was measured:
PKC-ε [1] = biological target: T1, PKC-ε (Homo sapiens, UniProt Q02156); test: PKC-ε activation: incorporation of 32P-inorganic phosphate from gamma-32P-ATP; assay type: biochemical
T1 sequence (Q02156 1-737): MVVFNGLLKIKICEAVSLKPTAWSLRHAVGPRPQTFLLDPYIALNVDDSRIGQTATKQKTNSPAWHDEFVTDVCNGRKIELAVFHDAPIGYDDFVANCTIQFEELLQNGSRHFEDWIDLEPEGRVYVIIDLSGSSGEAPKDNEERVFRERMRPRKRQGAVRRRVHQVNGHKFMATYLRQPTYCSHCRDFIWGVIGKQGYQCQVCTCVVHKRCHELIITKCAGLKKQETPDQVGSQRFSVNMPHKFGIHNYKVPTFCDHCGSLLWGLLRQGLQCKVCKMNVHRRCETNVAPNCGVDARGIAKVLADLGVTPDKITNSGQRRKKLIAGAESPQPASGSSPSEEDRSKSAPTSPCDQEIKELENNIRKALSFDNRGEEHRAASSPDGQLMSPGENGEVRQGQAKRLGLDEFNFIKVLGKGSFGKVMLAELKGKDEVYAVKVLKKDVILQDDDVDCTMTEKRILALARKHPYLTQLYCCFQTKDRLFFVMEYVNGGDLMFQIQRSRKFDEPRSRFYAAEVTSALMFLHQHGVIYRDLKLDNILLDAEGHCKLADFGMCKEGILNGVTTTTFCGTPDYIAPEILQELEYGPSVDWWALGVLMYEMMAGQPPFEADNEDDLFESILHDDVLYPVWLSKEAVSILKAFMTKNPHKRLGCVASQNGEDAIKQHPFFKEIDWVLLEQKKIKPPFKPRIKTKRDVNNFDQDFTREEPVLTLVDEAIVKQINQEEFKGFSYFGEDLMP
Procedure: Example 4: PKC-ε activation by DCPLA-EtF3 versus DCPLA methyl ester. […] Sen A, Alkon D L, Nelson T J, J. Biol. Chem. 287(19): 15947-58 (2012). PKC-ε activation by DCPLA-EtF3 was measured by measuring the incorporation of 32P-inorganic phosphate from gamma-32P-ATP by recombinant human PKC-ε.
Example 5: PKC-ε activation by 1,1,1-trifluoropropan-2-yl DCPLA. PKC-ε activation by 1,1,1-trifluoropropan-2-yl DCPLA was measured by measuring the incorporation of 32P-inorganic phosphate from gamma-32P-ATP by recombinant human PKC-ε. […] Activation started at 0.01 nM and was biphasic, consistent with a low and a high affinity binding site for DCPLA.

PKC-ε [2] = biological target: T1, PKC-ε; conditions: earlier research, cited from earlier work

## CCCCCC1CC1CC1CC1CCCCCCCC(=O)OC(C)C(F)(F)F (stereo not drawn) [1,1,1-trifluoropropan-2-yl DCPLA]
PKC-ε [1]; FIG. 2
  concentration at which PKC-ε activation started: 10 pM
PKC-ε [1]; FIG. 2, comparison in words
  potency compared to unmodified DCPLA: superior potency
PKC-ε [1]; FIG. 2, consistent with a low and a high affinity binding site
  shape of PKC-ε activation response: biphasic

## CCCCCC1CC1CC1CC1CCCCCCCC(=O)OCC(F)(F)F (stereo not drawn) [DCPLA-EtF3, DCPLA-trifluoroethyl ester]
PKC-ε [1]; FIG. 1
  concentration of peak PKC-ε activation: 0.1 to 1 nM
PKC-ε [1]; FIG. 1, comparison in words
  extent of PKC-ε activation compared with DCPLA methyl ester: approximately the same extent of activation as DCPLA methyl ester
PKC-ε [1]; FIG. 1, more potent than DCPLA methyl ester
  potency as PKC-ε activator relative to DCPLA methyl ester: approximately 1000 times
PKC-ε [1]; comparison in words
  potency compared with bryostatin-1: approximately equal to that of bryostatin-1

## CCCCCC1CC1CC1CC1CCCCCCCC(=O)OC (stereo not drawn) [DCPLA methyl ester]
PKC-ε [2]
  concentration of maximum PKC-ε activation: 0.1 µM
PKC-ε [2]; more potent than unesterified DCPLA
  potency as PKC-ε activator relative to unesterified DCPLA: approximately 100 times
